Measured values: publication PMC6079014, “Calcium is an essential cofactor for metal efflux by the ferroportin transporter family” (Nature Communications, 2018)
Several values for one entry are separate records, joined by “and”; a condition that tells them apart may be missing. Equal entries are not always repeated.

Legend:
[1] = target: T1, human Fpn (Homo sapiens, UniProt Q9NP59); experiment: Radiotracer metal efflux assay in Xenopus oocytes expressing human Fpn; type: cell-based
T1 construct: expressed in transfected cells; host or cells: Xenopus laevis oocytes injected with Fpn RNA
T1 sequence (Q9NP59 1-571): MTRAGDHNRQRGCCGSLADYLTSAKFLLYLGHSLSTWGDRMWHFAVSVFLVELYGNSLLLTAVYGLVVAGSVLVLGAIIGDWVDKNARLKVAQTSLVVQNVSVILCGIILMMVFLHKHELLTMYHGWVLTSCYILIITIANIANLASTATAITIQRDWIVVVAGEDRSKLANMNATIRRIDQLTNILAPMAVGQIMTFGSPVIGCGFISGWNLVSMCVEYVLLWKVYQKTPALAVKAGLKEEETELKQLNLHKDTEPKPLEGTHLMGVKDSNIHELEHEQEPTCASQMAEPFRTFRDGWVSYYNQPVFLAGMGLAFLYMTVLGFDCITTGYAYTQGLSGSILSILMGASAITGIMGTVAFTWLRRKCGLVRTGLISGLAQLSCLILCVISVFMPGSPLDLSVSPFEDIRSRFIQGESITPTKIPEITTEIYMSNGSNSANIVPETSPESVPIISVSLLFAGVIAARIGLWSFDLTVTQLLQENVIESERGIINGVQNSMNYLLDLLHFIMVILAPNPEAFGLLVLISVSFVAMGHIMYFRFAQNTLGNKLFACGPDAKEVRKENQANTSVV
Description: We performed laparotomy and ovariectomy on adult female Xenopus laevis frogs (Nasco, Fort Atkinson, WI) under 2-aminoethylbenzoate methanesulfonate anesthesia (0.2%, by immersion, to effect) following a protocol approved by the University of Cincinnati Institutional Animal Care and Use Committee. Ovarian tissue was isolated and treated for 3 h with […] collagenase A (Roche Diagnostics Corp., Indianapolis, IN) in calcium-free-modified Barths’ medium (MBM) of composition 88 mM NaCl, 1 mM KCl, 2.4 mM NaHCO3, 1.57 mM MgSO4, 0.66 mM NaNO3, 10 mM 4-(2-hydroxyethyl)-1-piperazineethanesulfonic acid (HEPES), buffered to pH 7.5 by using 2-amino-2-hydroxymethyl-propane-1,3-diol (Tris base). We isolated defolliculate stage V–VI oocytes stored at 17 °C in MBM of composition 88 mM NaCl, 1 mM KCl, 2.4 mM NaHCO3, 0.82 MgSO4, 0.75 mM CaCl2, 0.66 mM NaNO3, 10 mM HEPES, buffered to pH 7.5 by using Tris base, with 50 mg l^−1 ciprofloxacin. We expressed in Xenopus oocytes the 1A transcript form of human Fpn fused at its C-terminus with the enhanced green fluorescent protein (GFP) as described. Oocytes were injected with ∼50 ng of Fpn RNA and incubated for 4–6 days before being used in functional assays. Control oocytes were noninjected.
We measured metal efflux from oocytes expressing Fpn by using a radiotracer assay. Radiochemicals ^55Fe, ^45Ca, ^57Co, ^65Zn were obtained from Perkin-Elmer Life Science Products (Boston, MA) and ^63Ni from the National Isotope Development Center (Oak Ridge, TN). We used ^55Fe (added as FeCl3) at final specific activity 0.4–2.0 GBq mg^−1, ^45Ca (added as CaCl2) at final specific activity 0.5–0.9 GBq mg^−1, ^57Co (added as CoCl2) at final specific activity 1.6 GBq mg^−1, ^65Zn (added as ZnCl2) at final specific activity 0.2 GBq mg^−1, and ^63Ni (added as NiCl2) at final specific activity 0.6 GBq mg^−1. Oocytes were injected with 50 nl of 5 μM metal radionuclide (*M) in vehicle of composition 250 mM KCl, 5 mM nitrilotriacetic acid, trisodium salt, buffered to pH 7.0 with ∼4 mM 2-(N-morpholino)ethanesulfonic acid (MES) (GFS Chemicals, Columbus, OH). After injection, oocytes were briefly stored in ice-cold MBM (for 1–5 min) prior to the start of the efflux assay.
To initiate the efflux assay, we placed oocytes in standard efflux medium of composition 100 mM NaCl, 1 mM KCl, 2 mM CaCl2, 1 mM MgCl2, 0.5 mM bathophenanthroline disulfonic acid (BPS), 1 mM nitrilotriacetic acid (NTA) trisodium salt, 50 μg/ml apotransferrin (ApoTf) (R&D Systems Inc., Minneapolis, MN), buffered with 0–5 mM MES, and 0–5 mM N′,N′-diethylpiperazine to obtain pH 7.5, with the following exceptions. To prepare Ca^2+-free medium, we replaced 2 mM CaCl2 with 4 mM NaCl and added 1 mM ethylene glycol-bis(2-aminoethyl ether)-N,N,N′,N′-tetraacetic acid (EGTA). To prepare Mg^2+-free medium, we replaced […] MgCl2 with 4 mM NaCl and added 1 mM ethylenediaminetetraacetic acid (EDTA). To measure ^55Fe efflux as a function of extracellular [Ca^2+] over the range 0.1–20 mM Ca^2+ (Figs. 1c, 6b), we adjusted [NaCl] and [CaCl2] on a 2:1 molar basis without the addition of EGTA. Oocytes were then transferred individually in 200 µl of medium to flat-bottomed wells of a 96-well plate and incubated 30 min—within the linear phase of metal efflux[10] —at 23–27 °C with gentle rocking. To terminate efflux, we removed 150 µl of medium (0.75 × [N0–Nt]) from each well for liquid-scintillation counting in Ultima Gold liquid-scintillation cocktail (Perkin-Elmer, Waltham, MA). The corresponding oocytes were rinsed twice in ice-cold medium (without BPS), solubilized with 5% (w/v) sodium dodecyl sulfate, and counted (Nt). We fit our data for oocyte radiotracer content (N) over time (Eq. (1)) and obtained the first-order rate constant (k) for metal radionuclide (*M) efflux for individual oocytes. N0 and Nt are counts per min (cpm) in the oocyte at time = 0 and time = t, respectively.1 Nt=N0⋅exp(-k⋅t) […]

[2] = target: T1, human Fpn; experiment: as above; type: cell-based; conditions: 2 mM extracellular Ca2+ vs 0 mM Ca2+ plus 1 mM EGTA; 50 nl of 50 µM 65Zn injected
[3] = target: BbFpn N196A (Bdellovibrio bacteriovorus, UniProt Q6MLJ0, N196A); experiment: Isothermal titration calorimetry, N196A BbFpn; type: binding, Bdellovibrio bacteriovorous
Chain of BbFpn N196A (Q6MLJ0 whole entry N196A): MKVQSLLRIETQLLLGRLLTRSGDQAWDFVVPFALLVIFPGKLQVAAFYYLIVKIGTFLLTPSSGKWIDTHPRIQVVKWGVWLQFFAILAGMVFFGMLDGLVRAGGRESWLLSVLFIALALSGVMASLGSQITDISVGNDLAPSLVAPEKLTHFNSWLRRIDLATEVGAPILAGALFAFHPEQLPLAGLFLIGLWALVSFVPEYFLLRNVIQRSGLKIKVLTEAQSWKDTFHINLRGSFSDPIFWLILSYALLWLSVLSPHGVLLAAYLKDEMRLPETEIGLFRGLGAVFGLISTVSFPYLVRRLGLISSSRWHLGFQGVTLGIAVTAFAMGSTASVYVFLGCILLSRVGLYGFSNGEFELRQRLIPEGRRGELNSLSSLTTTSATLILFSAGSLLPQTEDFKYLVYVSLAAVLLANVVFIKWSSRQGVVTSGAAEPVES

[4] = 2 mM extracellular Ca2+ vs 0 mM Ca2+ plus 1 mM EGTA

## [Ca+2] [Ca^2+, calcium]
[1]
  EC50: 900 µM and 800 to 900 µM and 800 µM
[1]; [4]
  Dependence of Fpn-mediated 55Fe efflux on extracellular Ca2+: dependent
  Effect of extracellular Ca2+ on Fpn-mediated 57Co efflux: activated
  Effect of extracellular Ca2+ on Fpn-mediated 63Ni efflux: activated
[1]; oocytes injected with 45Ca
  45Ca efflux from oocytes expressing Fpn vs control: did not stimulate
[2]
  Effect of extracellular Ca2+ on Fpn-mediated 65Zn efflux: activated
[3]
  Binding to N196A BbFpn by ITC (in words): complete loss
